Measured values reported in ChEMBL document CHEMBL3885881, “DrugMatrix”.

Organism: Rattus norvegicus
Assay: DrugMatrix - Regimen: Daily Repeat
Assay type: toxicity, organism-based, Sprague-Dawley
Parameters: regimen Daily Repeat, gender Male, age 6-8 weeks
Details: in vivo, po, route oral GAVAGE, vehicle .5 % CMC; for ABSOLUTE BASOPHIL / ABSOLUTE EOSINOPHIL / ABSOLUTE LYMPHOCYTE / ABSOLUTE MONOCYTE / ABSOLUTE SEGMENTED NEUTROPHIL / BASOPHIL / EOSINOPHIL / ERYTHROCYTE COUNT / HEMATOCRIT / HEMOGLOBIN / LEUKOCYTE COUNT / LYMPHOCYTE / MEAN CORPUSCULAR HEMOGLOBIN / MEAN CORPUSCULAR HEMOGLOBIN CONCENTRATION / MEAN CORPUSCULAR VOLUME / MONOCYTE / NEUTROPHIL / NUCLEATED RED BLOOD CELLS / PLATELET COUNT: tissue Blood; for ALANINE AMINOTRANSFERASE / ALBUMIN / ALKALINE PHOSPHATASE / ASPARTATE AMINOTRANSFERASE / BLOOD UREA NITROGEN / CARBON DIOXIDE / CHLORIDE / CHOLESTEROL / CREATINE PHOSPHOKINASE / CREATININE / GLUCOSE / LACTATE DEHYDROGENASE / LIPASE / PHOSPHORUS / SODIUM / TOTAL BILIRUBIN / TOTAL PROTEIN / URIC ACID: tissue Plasma
[1] = 20 mg/kg, 72 h, dose level Low, time 3 day
[2] = 20 mg/kg, 120 h, dose level Low, time 5 day
[3] = 2000 mg/kg, 72 h, dose level High, time 3 day
[4] = 2000 mg/kg, 120 h, dose level High, time 5 day

Compound: NCCCC[C@H](N[C@@H](CCc1ccccc1)C(=O)O)C(=O)N1CCC[C@H]1C(=O)O [LISINOPRIL ANHYDROUS]
- ABSOLUTE BASOPHIL [1]: 0 CELLS/uL
- ABSOLUTE EOSINOPHIL [1]: 69 CELLS/uL
- ABSOLUTE LYMPHOCYTE [1]: 9482.67 CELLS/uL
- ABSOLUTE MONOCYTE [1]: 143.67 CELLS/uL
- ABSOLUTE SEGMENTED NEUTROPHIL [1]: 904.67 CELLS/uL
- BASOPHIL [1]: 0%
- EOSINOPHIL [1]: 0.67%
- ERYTHROCYTE COUNT [1]: 5.65 x10E6/uL
- HEMATOCRIT [1]: 34.1%
- HEMOGLOBIN [1]: 13.3 G/DL
- LEUKOCYTE COUNT [1]: 10.6 x10E3/uL
- LYMPHOCYTE [1]: 89.33%
- MEAN CORPUSCULAR HEMOGLOBIN [1]: 23.63 pg
- MEAN CORPUSCULAR HEMOGLOBIN CONCENTRATION [1]: 39 G/DL
- MEAN CORPUSCULAR VOLUME [1]: 60.5 fL
- MONOCYTE [1]: 1.33%
- NEUTROPHIL [1]: 8.67%
- NUCLEATED RED BLOOD CELLS [1]: 0 /100WBC
- PLATELET COUNT [1]: 1392 x10E3/uL
- ALANINE AMINOTRANSFERASE [1]: 44 u/L
- ALBUMIN [1]: 4.1 G/DL
- ALKALINE PHOSPHATASE [1]: 387 u/L
- ASPARTATE AMINOTRANSFERASE [1]: 70 u/L
- BLOOD UREA NITROGEN [1]: 22.67 mg/dL
- CARBON DIOXIDE [1]: 23.33 mmol/L
- CHLORIDE [1]: 101 MEQ/L
- CHOLESTEROL [1]: 80.33 mg/dL
- CREATINE PHOSPHOKINASE [1]: 236.67 u/L
- CREATININE [1]: 0.18 mg/dL
- GLUCOSE [1]: 166 mg/dL
- LACTATE DEHYDROGENASE [1]: 94.33 u/L
- LIPASE [1]: 10 u/L
- PHOSPHORUS [1]: 11.87 mg/dL
- SODIUM [1]: 140.73 MEQ/L
- TOTAL BILIRUBIN [1]: 0.23 mg/dL
- TOTAL PROTEIN [1]: 5.83 G/DL
- URIC ACID [1]: 2.13 mg/dL
- ABSOLUTE BASOPHIL [2]: 0 CELLS/uL
- ABSOLUTE EOSINOPHIL [2]: 0 CELLS/uL
- ABSOLUTE LYMPHOCYTE [2]: 11890.67 CELLS/uL
- ABSOLUTE MONOCYTE [2]: 94.67 CELLS/uL
- ABSOLUTE SEGMENTED NEUTROPHIL [2]: 1714.67 CELLS/uL
- BASOPHIL [2]: 0%
- EOSINOPHIL [2]: 0%
- ERYTHROCYTE COUNT [2]: 6.1 x10E6/uL
- HEMATOCRIT [2]: 36.67%
- HEMOGLOBIN [2]: 14.77 G/DL
- LEUKOCYTE COUNT [2]: 13.7 x10E3/uL
- LYMPHOCYTE [2]: 87%
- MEAN CORPUSCULAR HEMOGLOBIN [2]: 24.23 pg
- MEAN CORPUSCULAR HEMOGLOBIN CONCENTRATION [2]: 40.3 G/DL
- MEAN CORPUSCULAR VOLUME [2]: 60.07 fL
- MONOCYTE [2]: 0.67%
- NEUTROPHIL [2]: 12.33%
- NUCLEATED RED BLOOD CELLS [2]: 0 /100WBC
- PLATELET COUNT [2]: 1320.33 x10E3/uL
- ALANINE AMINOTRANSFERASE [2]: 51.33 u/L
- ALBUMIN [2]: 4.53 G/DL
- ALKALINE PHOSPHATASE [2]: 401 u/L
- ASPARTATE AMINOTRANSFERASE [2]: 81.67 u/L
- BLOOD UREA NITROGEN [2]: 22.33 mg/dL
- CARBON DIOXIDE [2]: 27.67 mmol/L
- CHLORIDE [2]: 96.33 MEQ/L
- CHOLESTEROL [2]: 70.67 mg/dL
- CREATINE PHOSPHOKINASE [2]: 297.33 u/L
- CREATININE [2]: 0.22 mg/dL
- GLUCOSE [2]: 158 mg/dL
- LACTATE DEHYDROGENASE [2]: 249 u/L
- LIPASE [2]: 9.67 u/L
- PHOSPHORUS [2]: 11.77 mg/dL
- SODIUM [2]: 139.17 MEQ/L
- TOTAL BILIRUBIN [2]: 0.17 mg/dL
- URIC ACID [2]: 2 mg/dL
- ABSOLUTE BASOPHIL [3]: 0 CELLS/uL
- ABSOLUTE EOSINOPHIL [3]: 42.33 CELLS/uL
- ABSOLUTE LYMPHOCYTE [3]: 11490 CELLS/uL
- ABSOLUTE MONOCYTE [3]: 124.67 CELLS/uL
- ABSOLUTE SEGMENTED NEUTROPHIL [3]: 1076.33 CELLS/uL
- BASOPHIL [3]: 0%
- EOSINOPHIL [3]: 0.33%
- ERYTHROCYTE COUNT [3]: 5.63 x10E6/uL
- HEMATOCRIT [3]: 33.57%
- HEMOGLOBIN [3]: 13.17 G/DL
- LEUKOCYTE COUNT [3]: 12.73 x10E3/uL
- LYMPHOCYTE [3]: 90%
- MEAN CORPUSCULAR HEMOGLOBIN [3]: 23.43 pg
- MEAN CORPUSCULAR HEMOGLOBIN CONCENTRATION [3]: 39.27 G/DL
- MEAN CORPUSCULAR VOLUME [3]: 59.63 fL
- MONOCYTE [3]: 1%
- NEUTROPHIL [3]: 8.67%
- NUCLEATED RED BLOOD CELLS [3]: 0 /100WBC
- PLATELET COUNT [3]: 1324.33 x10E3/uL
- ALANINE AMINOTRANSFERASE [3]: 40.33 u/L
- ALBUMIN [3]: 4.03 G/DL
- ALKALINE PHOSPHATASE [3]: 322.67 u/L
- ASPARTATE AMINOTRANSFERASE [3]: 68 u/L
- BLOOD UREA NITROGEN [3]: 26.67 mg/dL
- CARBON DIOXIDE [3]: 24.67 mmol/L
- CHLORIDE [3]: 101.33 MEQ/L
- CHOLESTEROL [3]: 71.67 mg/dL
- CREATINE PHOSPHOKINASE [3]: 262 u/L
- CREATININE [3]: 0.29 mg/dL
- GLUCOSE [3]: 155 mg/dL
- LACTATE DEHYDROGENASE [3]: 122.67 u/L
- LIPASE [3]: 9.67 u/L
- PHOSPHORUS [3]: 11.5 mg/dL
- SODIUM [3]: 141.1 MEQ/L
- TOTAL BILIRUBIN [3]: 0.13 mg/dL
- TOTAL PROTEIN [3]: 5.77 G/DL
- URIC ACID [3]: 1.53 mg/dL
- ABSOLUTE BASOPHIL [4]: 0 CELLS/uL
- ABSOLUTE EOSINOPHIL [4]: 43.33 CELLS/uL
- ABSOLUTE LYMPHOCYTE [4]: 10946.67 CELLS/uL
- ABSOLUTE MONOCYTE [4]: 86.67 CELLS/uL
- ABSOLUTE SEGMENTED NEUTROPHIL [4]: 1123.33 CELLS/uL
- BASOPHIL [4]: 0%
- EOSINOPHIL [4]: 0.33%
- ERYTHROCYTE COUNT [4]: 5.62 x10E6/uL
- HEMATOCRIT [4]: 34.17%
- HEMOGLOBIN [4]: 13.67 G/DL
- LEUKOCYTE COUNT [4]: 12.2 x10E3/uL
- LYMPHOCYTE [4]: 89.67%
- MEAN CORPUSCULAR HEMOGLOBIN [4]: 24.37 pg
- MEAN CORPUSCULAR HEMOGLOBIN CONCENTRATION [4]: 40 G/DL
- MEAN CORPUSCULAR VOLUME [4]: 60.8 fL
- MONOCYTE [4]: 0.67%
- NEUTROPHIL [4]: 9.33%
- NUCLEATED RED BLOOD CELLS [4]: 0 /100WBC
- PLATELET COUNT [4]: 1374 x10E3/uL
- ALANINE AMINOTRANSFERASE [4]: 43.33 u/L
- ALBUMIN [4]: 4.17 G/DL
- ALKALINE PHOSPHATASE [4]: 336.33 u/L
- ASPARTATE AMINOTRANSFERASE [4]: 74 u/L
- BLOOD UREA NITROGEN [4]: 29.67 mg/dL
- CARBON DIOXIDE [4]: 22.67 mmol/L
- CHLORIDE [4]: 103 MEQ/L
- CHOLESTEROL [4]: 72 mg/dL
- CREATINE PHOSPHOKINASE [4]: 214 u/L
- CREATININE [4]: 0.25 mg/dL
- GLUCOSE [4]: 167.67 mg/dL
- LACTATE DEHYDROGENASE [4]: 146.33 u/L
- LIPASE [4]: 9.67 u/L
- PHOSPHORUS [4]: 10.97 mg/dL
- SODIUM [4]: 141.47 MEQ/L
- TOTAL BILIRUBIN [4]: 0.13 mg/dL
- TOTAL PROTEIN [4]: 5.97 G/DL
- URIC ACID [4]: 1.9 mg/dL
